The target in experiment [1] is T1, human A2AAR (Homo sapiens, UniProt P29274).
T1 construct: expressed in transfected cells; host or cells: HEK293 cells stably expressing the human A2AAR
The experiment can be described thus: [^3H]ZM241385 radioligand binding, HEK293 membranes. The note with it: for Ki: WT receptor, 1 nM [^3H]ZM241385, membranes, 25 °C, 60 min. The protocol:
(§1) HEK293 cells expressing the human A2AAR were cultured in DMEM supplemented with 10% fetal bovine serum, 100 Units/mL penicillin, 100 µg/mL streptomycin and 2 µmol/mL glutamine. To prepare cell membranes, cells were detached from plates by scraping into PBS and centrifuged at 250× g for 5 min. The resulting pellets were re-suspended in ice-cold Tris-HCl buffer (50 mM, pH 7.4) and homogenized. After homogenization and suspension, cells were first centrifuged at 1000× g for 10 min and the pellet was discarded. The suspension was then re-centrifuged at 20,000× g for 60 min at 4 °C. The pellets were re-suspended, split into aliquots and stored at −80 °C. The protein concentration was measured using the Bradford assay.
(§2) Radioligand binding assays were performed using membranes prepared from HEK293 cells expressing human the A2AAR using both agonist and antagonist radioligands as previously described. […] (5 nM) or [^3H]ZM241385 (1 nM) and membrane preparations (20 μg protein) at 25 °C for 60 min in a total of 200 μL of Tris-HCl buffer (50 mM, pH 7.5) containing 10 mM MgCl2. […] Binding reactions were terminated by filtration through Whatman GF/B filters under reduced pressure using an MT-24 cell harvester (Brandell, Gaithersburg, MD, USA) followed by washing twice with 5 mL of cold Tris-HCl buffer.
(§3) Functional parameters were calculated using Prism 8.1.0 software (GraphPAD, San Diego, CA, USA). Data were expressed as mean ± standard error. Data were analyzed by analysis of variance (ANOVA) followed by post hoc analysis to check the statistical difference among groups with p < 0.05 being considered significant.

Experiment [2] addresses T1, human A2AAR. Nature of the experiment: Fluorescent ligand MRS7416 binding to intact HEK293 cells (flow cytometry). The following applies: for Ki: displacement of 15 nM fluorescent MRS7416, intact cells, 37 °C, 60 min; for Times weaker in displacing MRS7416 binding than radioligand binding: fluorescent versus radioligand Ki. How it is done:
Cells were plated in 96-well plates and grow overnight. In saturation binding experiments with fluorescent antagonist MRS7416, various concentrations were incubated in cell culture medium with control HEK293 cells or HEK293 cells expressing the A2AAR for 60 min at 37 °C in an atmosphere containing 5% CO2. […] At the end the reaction, the medium was removed, and cells were washed twice with PBS. After washing, 0.2 mL 0.1% EDTA solution was added to each well, and cells were incubated at 37 °C for 10 min. Following cell detachment and mixing of cells, the intensity of fluorescence emission of each sample was measured by using flow cytometry as previously described. […] Samples were maintained in the dark during the analysis to avoid photobleaching. Mean fluorescence intensity (MFI) was determined in the FL-1 channel in log mode. Ten thousand events were analyzed per sample. Data were collected using Cell Quest Pro software (BD, Franklin Lakes, NJ, USA) and analyzed by Cyflogic v. 1.2.1 software (CyFlo, Ltd., Turku, Finland).

Experiment [3] concerns the target T1, human A2AAR. The experiment can be described thus: cAMP accumulation assay, antagonism of CGS21680 with Schild analysis. Type of experiment: cell-based. The note with it: for Kb / Functional Antagonism Slope (Schild): Schild analysis, CGS21680-induced cAMP; for Kb: antagonist pretreatment 20 min, read-out: Functional Antagonism KB; for Functional Antagonism Slope (Schild): linear part of plot only for XAC630, MRS7396, HMA; for Pattern of A2AAR antagonism: from functional antagonism and Schild analysis. The protocol: HEK293 cells stably expressing the human A2AAR were seeded in 96-well plates and incubated in 100 µL medium at 37 °C overnight. The medium was removed the following day and cells were then treated with assay buffer containing rolipram (10 μM) and antagonists for 20 min followed by the addition of agonists, and then incubated for 20 min. The reaction was terminated upon removal of the supernatant and addition of 100 µL Tween-20 (0.3%). Intracellular 3′,5′-cyclic adenosine monophosphate (cAMP) levels were measured with an ALPHAScreen cAMP assay kit as instructed by the manufacturer (PerkinElmer, Boston, MA, USA).
as §3
To examine and analyze mechanistically the patterns of functional antagonism by various antagonists of different chemical entities, cells expressing relatively low A2AAR levels with minimal signaling amplification were used, as recommended, since receptor overexpression is related to the constitutive activity, and signaling amplification has been linked to changing the patterns of antagonism.
For orientation: Changes in cAMP serve as a functional read-out for many G protein-coupled receptors.

In another experiment the target is T2, D52N mutant A2AAR (Homo sapiens, UniProt P29274, D52N).
T2 construct: expressed in transfected cells; host or cells: HEK293 cells
T2 sequence (P29274 whole entry D52N): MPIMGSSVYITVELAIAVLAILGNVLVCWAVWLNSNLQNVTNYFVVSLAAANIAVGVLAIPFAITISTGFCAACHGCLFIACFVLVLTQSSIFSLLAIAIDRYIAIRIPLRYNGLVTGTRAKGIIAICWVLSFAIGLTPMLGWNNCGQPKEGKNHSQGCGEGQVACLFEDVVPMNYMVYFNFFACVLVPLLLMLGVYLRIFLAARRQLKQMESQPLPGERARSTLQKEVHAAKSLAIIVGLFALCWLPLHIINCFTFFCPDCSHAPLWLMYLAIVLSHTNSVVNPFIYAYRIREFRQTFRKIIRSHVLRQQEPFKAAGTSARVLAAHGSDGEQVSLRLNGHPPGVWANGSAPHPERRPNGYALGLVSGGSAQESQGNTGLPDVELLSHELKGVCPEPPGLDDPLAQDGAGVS
The experiment can be described thus: [^3H]ZM241385 binding to D52N mutant A2AAR expressed in HEK293 cells. The following applies: for Ki: 1 nM [^3H]ZM241385. The protocol: as §2
Here we examined if HMA and MRS7396 behave in a similar manner or not.
Data were from three independent experiments performed in duplicate.

The target in experiment [4] is T1, human A2AAR. The experiment can be described thus: [^3H]CGS21680 radioligand binding, HEK293 membranes. The following applies: for Ki: 5 nM [^3H]CGS21680, membranes, 25 °C, 60 min; for [^3H]CGS21680 binding, percent effect of the fluorophore amide alone: at a concentration of 10 µM. How it is done:
as §1, §2, §3

A further experiment concerns A2AAR D52A mutation. Details: method as in Massink et al. [10],[11]. The following applies: ref Massink et al. [10],[11]; cited from earlier work.

Structures are written as SMILES.

The term Ki denotes a measure of affinity in units of concentration, obtained from inhibition or displacement. What is called Kb is the equilibrium dissociation constant of an antagonist, usually derived from a functional assay.

T1 sequence (P29274 whole entry): as the sequence (P29274 whole entry D52N) above, with N52D counted along it

Regarding `N#Cc1c(N)nc(SCc2ncc[nH]2)c(C#N)c1-c1ccc(O)cc1` [LUF5834, 2-amino-4-(4-hydroxyphenyl)-6-[(1H-imidazol-2-ylmethyl)thio]-3,5-pyridinecarbonitrile, reference compound], the inhibitory constant (Ki) worked out at 13.3 ± 6.5 nM at human A2AAR [1] and 23 ± 4.6 nM at human A2AAR [2].

At human A2AAR [1], `Nc1nc2c(cnn2CCCc2ccc(OCC(=O)NCCCCNC(=O)CCCCCNC(=O)COc3ccc(/C=C/C4=[N+]5C(=Cc6ccc(-c7cccs7)n6[B-]5(F)F)C=C4)cc3)cc2)c2nc(-c3ccco3)nn12` [MRS7396] gave a Ki of 2.34 ± 0.33 nM. In addition, the “Fold more potent in binding in comparison to MRS7416” value at human A2AAR [1] (radioligand binding) is 10 fold. Also, on human A2AAR [3], the Kb was found to be 0.0017 ± 0.00034 µM, the “Functional Antagonism Slope (Schild)” value is 0.42 ± 0.02 and the “Pattern of A2AAR antagonism” value was “allosteric A2AAR antagonists”. For the same compound, on human A2AAR [2], affinity was put at a Ki of 256 ± 33 nM and the “Times weaker in displacing MRS7416 binding than radioligand binding” value (shortened to “Times weaker”) is 9–100 times. At D52N mutant A2AAR, this compound displayed a Ki of 0.00079 ± 0.00023 µM. In addition, at D52N mutant A2AAR ([^3H]ZM241385 binding), the “Fold weaker at WT than at the D52N mutant receptor” value was ~ 3 fold. This compound also yielded a Ki at human A2AAR [4] of 2.83 ± 0.2 nM.

For the compound `NC(=O)CCCCCNC(=O)COc1ccc(/C=C/C2=[N+]3C(=Cc4ccc(-c5cccs5)n4[B-]3(F)F)C=C2)cc1` [BY630-amide], on human A2AAR [4], the “[^3H]CGS21680 binding, percent effect of the fluorophore amide alone” value is listed as 2.6 ± 1.5%.

As for `NC(N)=NC(=O)c1nc(Cl)c(N2CCCCCC2)nc1N` [HMA, 5-(N,N-hexamethylene)amiloride, reference compound], the “Fold decrease of affinity by D52A mutation” value with A2AAR D52A mutation is given as “over 10 fold”. Besides, the Ki was found to be 3050 ± 1210 nM on human A2AAR [1], 18500 ± 2800 nM at human A2AAR [2], 15.8 µM at D52N mutant A2AAR and 2120 ± 510 nM on human A2AAR [4]. Moreover, on human A2AAR [3], the Kb stood at 3.81 ± 0.45 µM. Further, the “Functional Antagonism Slope (Schild)” value on human A2AAR [3] was 0.59 ± 0.05. Besides, the “Times weaker” value on human A2AAR [2] was 9–100 times. In addition, the “Fold affinity decrease at D52N versus WT” value at D52N mutant A2AAR ([^3H]ZM241385 binding) is recorded as 5 fold.

On human A2AAR [1], `CCCn1c(=O)c2[nH]c(-c3ccc(OCC(=O)NCCNC(=O)CCNC(=O)CCCCNC(=O)CCCCCNC(=O)c4ccc(-c5c6ccc(=N)c(S(=O)(=O)O)c-6oc6c(S(=O)(=O)O)c(N)ccc56)c(C(=O)O)c4)cc3)nc2n(CCC)c1=O` [XAC488] had a Ki of 388 ± 62 nM. Moreover, at human A2AAR [3], the Kb is 0.65 ± 0.12 µM, the “Functional Antagonism Slope (Schild)” value was determined as 1.03 ± 0.05 and the “Pattern of A2AAR antagonism” value is recorded as “antagonized competitively”. This compound gave a Ki at human A2AAR [4] of 438 ± 110 nM.

Turning to `N=c1ccc2c(-c3ccc(C(=O)NCCCCNC(=O)COc4ccc(CCCn5ncc6c5nc(N)n5nc(-c7ccco7)nc65)cc4)cc3C(=O)O)c3ccc(N)c(S(=O)(=O)O)c3oc-2c1S(=O)(=O)O` [MRS7416], the Ki on human A2AAR [1] came out at 23.8 ± 5.6 nM. Moreover, on human A2AAR [3], the Kb amounted to 0.00911 ± 0.00177 µM, the “Functional Antagonism Slope (Schild)” value was 0.68 ± 0.03 and the “Pattern of A2AAR antagonism” value is “allosteric A2AAR antagonists”. For the same compound, the Kd at human A2AAR [2] (saturation binding, intact cells, n = 6, read-out: Kd value from MRS7416 saturation experiments) came out at 0.0176 ± 0.0041 µM. Affinity at human A2AAR [4] was put at a Ki of 16.4 ± 1.6 nM.

For `N=c1ccc2c(-c3ccc(C(N)=O)cc3C(=O)O)c3ccc(N)c(S(=O)(=O)O)c3oc-2c1S(=O)(=O)O` [AF488-amide], the “[^3H]CGS21680 binding, percent effect of the fluorophore amide alone” value at human A2AAR [4] is given as 3.7 ± 1.2%.

Consider `CCCn1c(=O)c2[nH]c(-c3ccc(OCC(=O)NCCNC(=O)CCNC(=O)CCCCNC(=O)CCCCCN)cc3)nc2n(CCC)c1=O` [XAC245], for which the Ki on human A2AAR [1] is 198 ± 33 nM. Also, on human A2AAR [3], the antagonist dissociation constant (Kb) amounted to 0.28 ± 0.033 µM, the “Functional Antagonism Slope (Schild)” value is recorded as 0.68 ± 0.04 and the “Pattern of A2AAR antagonism” value is listed as “allosteric A2AAR antagonists”. At human A2AAR [2], the Ki worked out at 152 ± 29 nM. This compound also gave a Ki at human A2AAR [4] of 220 ± 36 nM.

`CCCn1c(=O)c2[nH]c(-c3ccc(OCC(=O)NCCNC(=O)CCCCCNC(=O)COc4ccc(/C=C/C5=[N+]6C(=Cc7ccc(-c8cccs8)n7[B-]6(F)F)C=C5)cc4)cc3)nc2n(CCC)c1=O` [XAC630, reference compound] gave a Ki at human A2AAR [1] of 36.6 ± 10.1 nM. Moreover, on human A2AAR [3], the Kb amounted to 0.0511 ± 0.0122 µM, the “Functional Antagonism Slope (Schild)” value was determined as 0.47 ± 0.04 and the “Pattern of A2AAR antagonism” value is “allosteric A2AAR antagonists”. Also, on human A2AAR [2], the inhibition constant Ki came to 692 ± 173 nM and the “Times weaker” value is 9–100 times. In addition, the affinity at human A2AAR [4], expressed as Ki, was 29 ± 5.7 nM.

On to `Nc1nc2c(cnn2CCCc2ccc(OCc3ccc(S(=O)(=O)O)cc3)cc2)c2nc(-c3ccco3)nn12` [MRS7352], for which the Ki came out at 6.24 ± 2.42 nM at human A2AAR [1], 5.28 ± 1.31 nM at human A2AAR [2] and 4.98 ± 1.13 nM on human A2AAR [4]. Further, the Kb at human A2AAR [3] stood at 0.00661 ± 0.00088 µM. Moreover, the “Functional Antagonism Slope (Schild)” value at human A2AAR [3] came to 0.88 ± 0.06.

Source of the values: publication PMC7290864, “Allosteric Antagonism of the A2A Adenosine Receptor by a Series of Bitopic Ligands” (Cells, 2020).
